Reference: publication PMC6364417, “Kinase inhibitor library screening identifies synergistic drug combinations effective in sensitive and resistant melanoma cells” (Journal of Experimental & Clinical Cancer Research : CR, 2019)

What was measured:
Assay in all cases: Kinase inhibitor library screening, PrestoBlue cell viability, 1 or 10 μM, 72 h
A375 cells (parental) = details: for cell viability, A375 Parental, 1μΜ / cell viability, A375 Parental, 10μΜ: 72 h, in %
[1] = system: 501Mel-XP cells (Vemurafenib-resistant); details: 72 h; for cell viability, 501Mel XP, 1μΜ / cell viability, 501Mel XP, 10μΜ: in %
[2] = system: 501Mel-GP cells (Dabrafenib-resistant); details: 72 h; for cell viability, 501Mel GP, 1μΜ / cell viability, 501Mel GP, 10μΜ: in %
[3] = system: IGR37-XP cells (Vemurafenib-resistant); details: for cell viability, IGR37 XP, 10μΜ / cell viability, IGR37 XP, 1μΜ: 72 h; for cell viability, IGR37 XP, 1μΜ: in %
501Mel cells (parental) = details: 72 h; for cell viability, 501Mel Parental, 1μΜ / cell viability, 501Mel Parental, 10μΜ: in %
Summary of the method: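 Readout: PrestoBlue signal on a monochromator plate reader, given as percent viability relative to untreated controls. Parental and drug-resistant (Vemurafenib XP, Dabrafenib GP) sublines were tested; at least duplicates per line.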

[4] = system: A375-XP cells (Vemurafenib-resistant); details: for cell viability, A375 XP, 1μΜ / cell viability, A375 XP, 10μΜ: 72 h, in %
[5] = system: A375-GP cells (Dabrafenib-resistant); details: for cell viability, A375 GP, 1μΜ / cell viability, A375 GP, 10μΜ: 72 h, in %
[6] = system: IGR37-GP cells (Dabrafenib-resistant); details: for cell viability, IGR37 GP, 10μΜ / cell viability, IGR37 GP, 1μΜ: 72 h; for cell viability, IGR37 GP, 1μΜ: in %
IGR37 cells (parental) = details: for cell viability, IGR37 Parental, 10μΜ / cell viability, IGR37 Parental, 1μΜ: 72 h, in %

| SMILES | cell viability, A375 Parental, 1μΜ (A375 cells (parental)) | cell viability, 501Mel XP, 1μΜ [1] | cell viability, 501Mel XP, 10μΜ [1] | cell viability, 501Mel GP, 1μΜ [2] | cell viability, 501Mel GP, 10μΜ [2] | cell viability, IGR37 XP, 10μΜ [3] | cell viability, 501Mel Parental, 1μΜ (501Mel cells (parental)) | cell viability, 501Mel Parental, 10μΜ (501Mel cells (parental)) | cell viability, A375 XP, 1μΜ [4] | cell viability, A375 XP, 10μΜ [4] | cell viability, A375 GP, 1μΜ [5] | cell viability, A375 GP, 10μΜ [5] | cell viability, IGR37 GP, 10μΜ [6] | cell viability, IGR37 GP, 1μΜ [6] | cell viability, IGR37 Parental, 10μΜ (IGR37 cells (parental)) | cell viability, A375 Parental, 10μΜ (A375 cells (parental)) | cell viability, IGR37 XP, 1μΜ [3] | cell viability, IGR37 Parental, 1μΜ (IGR37 cells (parental)) | also measured |
| --- | --- | --- | --- | --- | --- | --- | --- | --- | --- | --- | --- | --- | --- | --- | --- | --- | --- | --- | --- |
| COc1cccc(-c2cc(=O)c3ccccc3o2)c1N [PD98059] | 98.4 | 97.3 | 80.0 | 104.1 | 84.1 | 61.9% | 98.8 | 79.8 | 102.6 | 94.1 | 95.5 | 83.6 | 88.7% | 94.1 | 81.4 | – | – | – | – |
| COc1cc2ncnc(Nc3cccc(Br)c3)c2cc1OC.Cl [PD153035 HCl] | 108.8 | 99.4 | 16.6 | 110.1 | 28.5 | 30.6% | 107.0 | 38.0 | 108.7 | 97.5 | 106.0 | 105.2 | 73.7% | – | 42.8 | 108.3 | 82.2 | 115.8 | – |
| CCN(CC)CCCCNc1ncc2cc(-c3cc(OC)cc(OC)c3)c(NC(=O)NC(C)(C)C)nc2n1 [PD173074] | – | – | – | – | – | – | – | – | – | – | – | – | – | – | – | – | – | – | viability at 1 µM (A375 cells (parental); Homo sapiens, A-375, 72 h, read-out: cell viability, A375 Parental, 1μΜ): 105%; viability at 10 µM (A375 cells (parental); Homo sapiens, A-375, 72 h, read-out: cell viability, A375 Parental, 10μΜ): 70.1%; viability at 1 µM ([1]; Homo sapiens, read-out: cell viability, 501Mel XP, 1μΜ): 97.2%; viability at 10 µM ([1]; Homo sapiens, read-out: cell viability, 501Mel XP, 10μΜ): -0.025%; viability at 1 µM ([2]; Homo sapiens, read-out: cell viability, 501Mel GP, 1μΜ): 106%; viability at 10 µM ([2]; Homo sapiens, read-out: cell viability, 501Mel GP, 10μΜ): 13.2%; viability at 1 µM ([3]; Homo sapiens, IGR-37, 72 h, read-out: cell viability, IGR37 XP, 1μΜ): 92.2%; viability at 10 µM ([3]; Homo sapiens, IGR-37, 72 h, read-out: cell viability, IGR37 XP, 10μΜ): 14.7%; viability at 1 µM (501Mel cells (parental); Homo sapiens, read-out: cell viability, 501Mel Parental, 1μΜ): 103%; viability at 10 µM (501Mel cells (parental); Homo sapiens, read-out: cell viability, 501Mel Parental, 10μΜ): 11.8%; viability at 1 µM ([4]; Homo sapiens, A-375, 72 h, read-out: cell viability, A375 XP, 1μΜ): 100%; viability at 10 µM ([4]; Homo sapiens, A-375, 72 h, read-out: cell viability, A375 XP, 10μΜ): 72%; viability at 1 µM ([5]; Homo sapiens, A-375, 72 h, read-out: cell viability, A375 GP, 1μΜ): 98.2%; viability at 10 µM ([5]; Homo sapiens, A-375, 72 h, read-out: cell viability, A375 GP, 10μΜ): 62.8%; viability at 1 µM ([6]; Homo sapiens, IGR-37, 72 h, read-out: cell viability, IGR37 GP, 1μΜ): 91.4%; viability at 10 µM ([6]; Homo sapiens, IGR-37, 72 h, read-out: cell viability, IGR37 GP, 10μΜ): 50%; viability at 1 µM (IGR37 cells (parental); Homo sapiens, IGR-37, 72 h, read-out: cell viability, IGR37 Parental, 1μΜ): 99.8%; viability at 10 µM (IGR37 cells (parental); Homo sapiens, IGR-37, 72 h, read-out: cell viability, IGR37 Parental, 10μΜ): 75.6% |
| O=C(NOCC(O)CO)c1cc(Br)c(F)c(F)c1Nc1ccc(I)cc1F (centres unmarked) [PD318088] | 19.2 | 84.8 | 57.7 | 99.4 | 79.2 | 22.8% | 54.5 | 54.4 | 36.7 | 11.2 | 31.6 | 15.6 | 66.4% | 76.0 | 36.8 | 16.4 | 63.3 | 37.8 | – |
